In one series the test system is cancer cells. The settings on record: in the presence of 2-phenylethynesulfonamide; cited from earlier work. The source says: It was recently reported that VER155008 could bind to the ...
Series [1] concerns Hsp70 / Hsp70 promoter in BT20 cells. In words: Hsp70 expression (western blotting) and Hsp70 promoter activation (reporter assay, LV200 single-cell imaging). The series is classed as cell-based, human. How it is done:
Western blotting was carried out as described previously. Briefly, protein extracts were prepared from cells lysed with reporter lysis buffer (Promega, Madison, WI, USA), separated by SDS-PAGE and transferred to nitrocellulose filters using the iBlot system (Invitrogen, Carlsbad, CA, USA) according to the manufacturer’s protocol. Quenched membranes were probed with antibodies and analyzed using an enhanced reagent of Chemi-Lumi One Super (Nacalai Tesque) with a LAS-3000 LuminoImage analyzer (Fujifilm, Tokyo, Japan). Densitometric analysis was performed by Multi Gauge software V3.0 (Fujifilm) using the bands obtained from western blotting, in which actin as the loading control was used for normalizing of each bands.
A reporter assay was carried out as described previously. […] The relative activity of firefly luciferase to Renilla luciferase activity was determined in triplicate (means ± SD) using the Dual-Glo Luciferase Assay System (Promega).
Stably transfected BT20 cells with pHsp70Pro-Luc were prepared after transient transfection with Lipofectamine LTX according to the manufacturer’s protocol in a selective medium containing 200 μg/ml hygromycine B (Nacalai Tesque). Luminescence images at the single-cell level were obtained using the LV200 luminescence imaging system (Olympus) as described previously. […]
A general note: Immunoblotting shows a protein as a band on a membrane.

The next series concerns BT20 cells. The series can be described thus: Cell viability assay (WST-8). The series is classed as cell-based, human. The method, then:
(§1) Cell viability was determined by WST-8 assay as described previously. Briefly, cells were seeded onto 96-well plates at 2000–3000 cells/well overnight. After incubating with the test peptides, the cell viability assay was carried out using Living Cell Count Reagent SF (Nacalai Tesque) according to the manufacturer’s protocol. Absorbance was measured at 450 nm using a 96-well microplate reader (GE Healthcare Bioscience, Piscataway, NJ).
(Tetrazolium dyes change colour on reduction, which living cells bring about.)

The test system of a further series is MDA-MB-361 cells. In words: Cell viability assay (WST-8). The series is classed as cell-based, human. Particulars: 24 h, mean of three independent observations each performed in triplicate, read-out: IC50 of Antp-TPR. How it is done: as §1
Series [2] has as its system normal mammary epithelial cells (MCF-10A). The series can be described thus: Cell viability assay (WST-8). The class given is cell-based, human. Particulars: 24 h, R11-Hsp70 10 μM where present, compared with cancer cell lines. The method, then:
as §1

A further series concerns MDA-MB-231 cells. In words: Cell viability assay (WST-8). The series is classed as cell-based, human. Particulars: 24 h. How it is done:
as §1

A further series deals with BT474 cells. In words: Cell viability assay (WST-8). The settings on record: 24 h, mean of three independent observations each performed in triplicate, read-out: IC50 of Antp-TPR. The class given is cell-based, human. The method, then:
as §1

The subject of series [3] is MDA-MB-231, BT20, BT474, and MDA-MB-361 cell lines. The series can be described thus: Cell viability assay (WST-8), summary over four breast cancer cell lines. The class given is cell-based, human. Particulars: MDA-MB-231, BT20, BT474, MDA-MB-361; summary of Table 1; read-out: IC50 values of Antp-TPR alone, range over four cell lines. How it is done: as §1
Series [4] has as its system BT20, MDA-MB-231, or MCF-10A cells. The series can be described thus: Cellular uptake by flow cytometry. The class given is cell-based, human. Particulars: BT20, MDA-MB-231, MCF-10A, Antp-TPR-TAMRA 10 μM, R11-Hsp70 or R11-Hsp70 scramble 10 μM, 30 min. How it is done:
Flow cytometry assay was performed as described previously. […] The cell pellets were resuspended, and then flow cytometry analysis was performed by FACSCalibur (BD Bioscience, San Jose, CA, USA). Data were analyzed using CellQuest Software (BD Bioscience). Annexin V and PI staining was performed using Annexin V-Fluorescein Staining Kit (Wako Chemicals, Osaka, Japan) by multiparametric flow cytometry assay as described previously.
For orientation: In flow cytometry, cells or beads pass a laser one at a time.

Ends that are not written are not given here.

Regarding `NS(=O)(=O)C#Cc1ccccc1` [2-phenylethynesulfonamide], the “effect on the cytotoxic activity of 17-AAG” value (shortened to “effect … of 17-AAG”) in the series on cancer cells is reported as “the cytotoxic activity of 17-AAG was increased”.

On to `C=CCNC1=C2C[C@@H](C)C[C@H](OC)[C@H](O)[C@@H](C)/C=C(\C)[C@H](OC(N)=O)[C@@H](OC)/C=C\C=C(/C)C(=O)NC(=CC1=O)C2=O` [17-AAG, 17-allylamino-demethoxygeldanamycin], for which, in series [1] (BT20 cells with pHsp70Pro-Luc, Antp-TPR 20 μM, R11-Hsp70 10 μM, 17-AAG 0.5 μM, luminometer 18 h and LV200 single-cell imaging), the “activation of the Hsp70 promoter” value is reported as “induced activation at the single-cell level”. The “up-regulation of Hsp70 and the promoter activity of this protein” value in [1] (BT20 cells, 0.5 μM 17-AAG, 6 h or 18 h western blotting, promoter assay 18 h) is listed as “induced both”.

On to `N#Cc1ccc(COC[C@H]2O[C@@H](n3c(NCc4ccc(Cl)c(Cl)c4)nc4c(N)ncnc43)[C@H](O)[C@@H]2O)cc1` [VER155008, reference compound], for which, in the series on BT20 cells (5 μM VER155008, WST-8), the “effect … of 17-AAG” value is given as “did not have any synergetic effect on the cytotoxic activity of 17-AAG” and the “effect on the cytotoxic activity of Antp-TPR” value was “cytotoxic activity of Antp-TPR toward cancer cells was increased”.

RQIKIWFQNRRMKWKKKAYARIGNSYFK [Antp-TPR]: the IC50 with MDA-MB-361 cells is 33.8 ± 2.6 µM; with MDA-MB-231 cells (WST-8, mean of three independent observations each performed in triplicate, read-out: IC50 of Antp-TPR), 31.2 ± 3 µM; in the series on BT474 cells, 34.1 ± 2.7 µM; in the series with BT20 cells (24 h, WST-8, mean of three independent observations each performed in triplicate, read-out: IC50 of Antp-TPR), 26.1 ± 3 µM; in series [3], 26 to 34 µM. In addition, the “cytotoxic activity toward normal mammary epithelial cells” value in series [2] is “less than that of these peptides against cancer cell lines”.

For “RRRRRRRRRRRGGGTPTYRASCFYHYK [R11-Hsp70scramble]”, the “effect on the cytotoxic activity of Antp-TPR” value with MDA-MB-231 cells (R11-Hsp70scramble 10 μM) is on record as “no effective increase in the cytotoxic activity of Antp-TPR”; in the series with BT20 cells (R11-Hsp70scramble 10 μM, 24 h), “no effective increase in the cytotoxic activity of Antp-TPR”.

Regarding RRRRRRRRRRRGGGYCAYYSPRHKTTF [R11-Hsp70], in the series on BT20 cells (R11-Hsp70 10 μM, 24 h), the “effect … of 17-AAG” value is “did not affect the cytotoxic activity of 17-AAG”. The “enhancement for cellular uptake of Antp-TPR” value in series [4] is on record as “higher than that of Antp-TPR by R11-Hsp70 scramble peptide”.

In general, IC50 refers to the midpoint of a concentration-inhibition curve.

The values are drawn from paper PMC4153893, “Synergetic cytotoxic activity toward breast cancer cells enhanced by the combination of Antp-TPR hybrid peptide targeting Hsp90 and Hsp70-targeted peptide” (BMC Cancer, 2014).
